Measured values from US20070135366A1, “Method for assessing cancerous state” (SUMITOMO CHEMICAL COMPANY, LIMITED., priority 2003, published 2007).

What was measured:
[1] = tested on: Fibrillin2 gene expression in pancreatic cancer cell line PANC-1; assay: Effect of methylation inhibitor on expression of Fibrillin2 gene (Real Time PCR of mRNA-derived DNA) in PANC-1; type: cell-based, human; conditions: added on first and third day after seeding, cells recovered on fourth day
Experimental: (§1) seven kinds of human-derived pancreatic cancer cell lines (BXPc3, HPAF-II, Capan-2, MiaPaCa-2, Hs766T, PANC-1 and HPAC) and immortal (normal) pancreatic ductal epithelial cells lines (HPDE-4/E6E7 and HPDE6-E6E7c7) were cultured to 70% confluent in an exclusively used medium, and thereafter, each cell was corrected. 1 ml of an ISOGEN solution (Nippon Gene) was mixed with collected each cell (wet weight about 100 mg), this was homogenized, and 0.2 ml of chloroform was added thereto to suspend them. After suspending, the mixture was centrifuged (4° C., 15000×g, 15 minutes) to recover the supernatant. […]
(§2) A reaction solution of PCR was used which was obtained by mixing 50 ng of a cDNA as a template, each 1 μl of two kinds of 10 pmol/μl aforementioned primer solution, 4 μl of 2.5 mM dNTP, 4 μl of 5 mM dUTP, 5 μl of 10×SYBR Green PCR Buffer, 6 μl of 25 mM MgCl2 and 0.3 μl of a 5U/μl thermos table DNA polymerase (AmpliTaq Gold), 0.5 μl of AmpEraseUNG and adding sterilized ultrapure water thereto to an amount of solution of 50 μl. […] When a DNA derived from mRNA of Fibrillin2 gene and GAPDH gene was amplified, after the reaction solution was retained at 95° C. for 10 minutes, Real Time PCR was performed at the conditions under which each cycle was 30 seconds at 95° C., 30 seconds at 59° C. and 30 seconds at 72° C. to quantitate Fibrillin2 gene and GAPDH gene.

[2] = tested on: Fibrillin2 gene expression in pancreatic cancer cell line HPAC; assay: Effect of methylation inhibitor on expression of Fibrillin2 gene (Real Time PCR of mRNA-derived DNA) in HPAC; type: cell-based, human; conditions: added on first and third day after seeding, cells recovered on fourth day
Experimental: as §1, §2

Measured: DNA derived from a mRNA of Fibrillin2 gene (expression of Fibrillin2 gene)

Nc1ncn([C@H]2C[C@H](O)[C@@H](CO)O2)c(=O)n1 [5Aza-dC, 5-aza-2′-deoxytidine]
detected: [1]; PANC-1 cultured in the presence of 0.5 μM 5Aza-dC | [1]; PANC-1 cultured in the presence of 1 μM 5Aza-dC | [2]; HPAC cultured in the presence of 0.5 μM 5Aza-dC | [2]; HPAC cultured in the presence of 1 μM 5Aza-dC
